Experimental data published in patent US20110105419A1, “PHARM[…] BASED ON CO[…] OF D-METALS” (priority 2008, published 2011).
Marks after values point to notes of the source that are not given here.

What was measured:
peritoneal macrophages = test: Intracellular calcium concentration and Ca2+ signals in peritoneal macrophages (Fura-2AM); format: cell-based, rat
male rats with cytopenia = test: General blood analysis of male rats with cytopenia after application of cyclophosphane; format: in vivo, rat; details: doses mg/kg: cysteine 9.5, lithium carbonate 3, C-Li 10, Fe-C-Li:C-Li 10
herpes type 2 (HSV-2) = test: Generalized herpetic infection of white mice; format: in vivo; details: mice infected with HSV-2
[1] = target: T1, epidermal growth factor receptor (Homo sapiens, UniProt P00533); test: Tyrosine kinase activity of the epidermal growth factor receptor in A431 cells (phosphotyrosine immunoblotting, densitometry); format: cell-based
T1 construct: cells of the human epidermoid carcinoma line A431 have an extraordinarily high level of expression of the epidermal growth factor receptor; endogenous in cells; host or cells: A431 (All-Russian Cell Culture Collection)

[2] = system: Chlamydia trachomatis, strain L-2; test: Experimental generalized chlamydial infection of white mice; format: in vivo
[3] = 3 days after cyclophosphane 100 mg/kg
[4] = 7 days after cyclophosphane 100 mg/kg
[5] = 14 days after cyclophosphane 100 mg/kg
[6] = Zovirax 15 mg/kg daily for 14 days
[7] = Zovirax 30 mg/kg daily for 14 days
[8] = mice infected with Chlamydia trachomatis L-2, 2 LD50, 20 mg/kg s.c. daily for 10 days
[9] = mice infected with Chlamydia trachomatis L-2, josamycin 25 mg/kg orally daily for 10 days
[10] = mice infected with Chlamydia trachomatis L-2, josamycin 50 mg/kg orally daily for 10 days
[11] = mice infected with Chlamydia trachomatis L-2, josamycin 100 mg/kg orally daily for 10 days

T1 sequence (P00533 25-1210): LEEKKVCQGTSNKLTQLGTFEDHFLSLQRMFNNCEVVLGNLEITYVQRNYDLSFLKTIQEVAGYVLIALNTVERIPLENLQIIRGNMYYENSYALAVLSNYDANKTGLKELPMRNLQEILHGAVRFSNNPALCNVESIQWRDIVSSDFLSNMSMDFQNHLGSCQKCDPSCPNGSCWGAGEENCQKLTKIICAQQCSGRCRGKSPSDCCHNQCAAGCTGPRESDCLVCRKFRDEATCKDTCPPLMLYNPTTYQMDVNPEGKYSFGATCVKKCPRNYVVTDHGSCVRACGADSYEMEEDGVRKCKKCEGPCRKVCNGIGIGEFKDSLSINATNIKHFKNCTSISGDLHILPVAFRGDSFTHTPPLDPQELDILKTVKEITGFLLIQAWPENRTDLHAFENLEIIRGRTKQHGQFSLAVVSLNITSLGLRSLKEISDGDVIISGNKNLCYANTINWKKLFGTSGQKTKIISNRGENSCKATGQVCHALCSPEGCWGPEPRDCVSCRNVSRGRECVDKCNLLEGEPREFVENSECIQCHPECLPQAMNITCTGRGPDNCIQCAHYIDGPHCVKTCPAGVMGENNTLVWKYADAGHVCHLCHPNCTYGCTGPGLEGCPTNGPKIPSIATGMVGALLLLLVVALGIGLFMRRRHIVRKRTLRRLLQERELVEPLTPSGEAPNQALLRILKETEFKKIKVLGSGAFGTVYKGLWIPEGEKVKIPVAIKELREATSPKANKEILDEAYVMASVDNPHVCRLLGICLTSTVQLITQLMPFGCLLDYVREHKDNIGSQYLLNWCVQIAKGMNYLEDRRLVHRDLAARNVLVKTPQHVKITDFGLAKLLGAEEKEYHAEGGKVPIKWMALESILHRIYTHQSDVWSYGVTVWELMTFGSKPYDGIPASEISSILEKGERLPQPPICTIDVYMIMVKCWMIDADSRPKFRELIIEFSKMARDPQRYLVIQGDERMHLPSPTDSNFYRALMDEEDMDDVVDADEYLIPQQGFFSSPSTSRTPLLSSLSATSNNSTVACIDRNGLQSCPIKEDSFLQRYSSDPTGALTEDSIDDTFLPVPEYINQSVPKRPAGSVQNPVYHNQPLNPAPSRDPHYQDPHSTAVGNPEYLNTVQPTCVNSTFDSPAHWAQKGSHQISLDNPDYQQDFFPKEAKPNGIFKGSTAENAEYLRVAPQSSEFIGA

SMILES | ESR (male rats with cytopenia; [3]) [mm/h] | Erythrocytes (male rats with cytopenia; [3]) | Leukocytes (male rats with cytopenia; [3]) | Lymphocytes (male rats with cytopenia; [3]) [%] | Reticulocytes (male rats with cytopenia; [3]) [%] | Segmented neutrophils (male rats with cytopenia; [3]) [%] | Thrombocytes (male rats with cytopenia; [3]) | ESR (male rats with cytopenia; [4]) [mm/h] | Erythrocytes (male rats with cytopenia; [4]) | Leukocytes (male rats with cytopenia; [4]) | Lymphocytes (male rats with cytopenia; [4]) [%] | Segmented neutrophils (male rats with cytopenia; [4]) [%] | Thrombocytes (male rats with cytopenia; [4]) | ESR (male rats with cytopenia; [5]) [mm/h] | Erythrocytes (male rats with cytopenia; [5]) | Leukocytes (male rats with cytopenia; [5]) | Lymphocytes (male rats with cytopenia; [5]) [%] | Reticulocytes (male rats with cytopenia; [5]) [%] | Segmented neutrophils (male rats with cytopenia; [5]) [%] | also measured
Nc1ncnc2c1ncn2[C@@H]1O[C@H](COP(=O)(O)OP(=O)(O)OP(=O)(O)O)[C@@H](O)[C@H]1O [ATP] | – | – | – | – | – | – | – | – | – | – | – | – | – | – | – | – | – | – | – | [Ca2+]i peak of the Ca2+ signal (peritoneal macrophages; rat peritoneal macrophages, normal physiological solution, 200 μM ATP, baseline 75±18 nM): 820 ± 105 nM; [Ca2+]i in the plateau phase, on average (peritoneal macrophages; rat peritoneal macrophages, normal physiological solution, 4 min after addition of 200 μM ATP): 460 ± 115 nM
N[C@@H](CS)C(=O)[O-].[Li+] [C—Li, lithium salt of cysteine] | 3.3 ± 0.80 | 4.0 ± 0.23 10^12/l | 4.38 ± 0.31* 10^9/l | 45 ± 1.6 | 0.1 ± 0.1 | 42 ± 1.6 | 387 ± 17.4 10^9/l | 3.2 ± 0.80 | 3.2 ± 0.18 10^12/l | 4.8 ± 0.18** 10^9/l | 22 ± 0.9 | 50.4 ± 0.6 | 164 ± 10.0** 10^3/l | 2.7 ± 0.49 | 5.2 ± 0.26 10^12/l | 5.6 ± 0.22** 10^9/l | 72.5 ± 1.4 | 1.3 ± 0.3 | 20.3 ± 2.4 | Reticulocytes (male rats with cytopenia; [4]): 1.2 ± 0.2%
O=C([O-])[O-].[Li+].[Li+] [Li2HCO3, lithium carbonate] | 2.4 ± 0.42 | 3.7 ± 0.21 10^12/l | 3.75 ± 0.46* 10^9/l | 62 ± 3.8 | 0.118 ± 0.01 | 19.7 ± 3.4 | 256 ± 45.3 10^9/l | 2.0 ± 0.36 | 3.6 ± 0.29 10^12/l | 3.22 ± 0.11* 10^9/l | 50.7 ± 1.6 | 33 ± 1.7 | 119 ± 12.0** 10^3/l | 2.4 ± 0.65 | 4.9 ± 0.27 10^12/l | 5.9 ± 0.26** 10^9/l | 69.3 ± 0.9 | 1.4 ± 0.3 | 14.9 ± 2.6 | Reticulocytes (male rats with cytopenia; [4]): 1.1 ± 0.1%
Nc1nc2c(ncn2COCCO)c(=O)[nH]1 [Zovirax] | – | – | – | – | – | – | – | – | – | – | – | – | – | – | – | – | – | – | – | % mortality (herpes type 2 (HSV-2); [6]): 50%; % protection, (S) (herpes type 2 (HSV-2); [6]): 12.5%; Died/total in group (herpes type 2 (HSV-2); [6]): 8/16; ML (days) (T), mean life (herpes type 2 (HSV-2); [6]): 12.8 days; % mortality (herpes type 2 (HSV-2); [7]): 0%; % protection, (S) (herpes type 2 (HSV-2); [7]): 62.5%; Died/total in group (herpes type 2 (HSV-2); [7]): 0/16; ML (days) (T), mean life (herpes type 2 (HSV-2); [7]): ∞
N[C@@H](CS)C(=O)O [cysteine] | 2.2 ± 0.30 | 3.0 ± 0.29 10^12/l | 3.26 ± 0.31* 10^9/l | 68 ± 2.8 | 0.09 ± 0.006 | 17.6 ± 2.1 | 220 ± 45.3 10^9/l | 1.9 ± 0.39 | 3.1 ± 0.33 10^12/l | 3.47 ± 0.08* 10^9/l | 51.5 ± 1.3 | 30 ± 1.8 | 124 ± 11.0** 10^3/l | 2.1 ± 0.73 | 4.7 ± 0.21 10^12/l | 5.7 ± 0.22** 10^9/l | 72.1 ± 1.6 | 1.1 ± 0.4 | 13.3 ± 1.9 | % mortality (herpes type 2 (HSV-2); 20 mg/kg daily for 14 days): 62.5%; Died/total in group (herpes type 2 (HSV-2); 20 mg/kg daily for 14 days): 10/16; ML (days) (T), mean life (herpes type 2 (HSV-2); 20 mg/kg daily for 14 days): 11.4 days; activation of the EGF receptor, by a factor of ([1]; cysteine 0.015 μmol/ml, periods of action from 1 hour to 4-8 hours, ratio to control): 8-10; [Ca2+]i increased to, by mobilization of calcium from the intracellular stores (peritoneal macrophages; rat peritoneal macrophages at rest, 0.015 μmol/ml): 180 ± 19 nM; % mortality [2, 8]: 75%; % protection, (S) [2, 8]: 0%; Died/total in group [2, 8]: 12/16; HML (T), (days), harmonic mean life [2, 8]: 5.6 days
NCC(=O)O [glycine] | – | – | – | – | – | – | – | – | – | – | – | – | – | – | – | – | – | – | – | influence on the tyrosine kinase activity of the epidermal growth factor receptor ([1]; ligands 0.015 μmol/ml, coordination compounds 0.015 nmol/ml): barely detected
CO[C@@H]1[C@@H](O[C@@H]2O[C@H](C)[C@@H](O[C@H]3C[C@@](C)(O)[C@@H](OC(=O)CC(C)C)[C@H](C)O3)[C@H](N(C)C)[C@H]2O)[C@@H](CC=O)C[C@@H](C)[C@@H](O)/C=C/C=C/C[C@@H](C)OC(=O)C[C@H]1OC(C)=O [josamycin] | – | – | – | – | – | – | – | – | – | – | – | – | – | – | – | – | – | – | – | % mortality [2, 9]: 37.5%; % protection, (S) [2, 9]: 37.5%; Died/total in group [2, 9]: 6/16; HML (T), (days), harmonic mean life [2, 9]: 12.35 days; % mortality [2, 10]: 12.5%; % protection, (S) [2, 10]: 62.5%; Died/total in group [2, 10]: 2/16; HML (T), (days), harmonic mean life [2, 10]: 83.3 days; % mortality [2, 11]: 0%; % protection, (S) [2, 11]: 75%; Died/total in group [2, 11]: 0/16; HML (T), (days), harmonic mean life [2, 11]: ∞
